Drawing on patent US20150087627A1, “COMBINATION OF KINASE INHIBITORS AND USES THEREOF” (Intellikine LLC, priority 2011, published 2015), this text covers IC50 for 16 compounds.

Like-named read-outs stand apart in the source and are kept apart here. Where only a bound is given, the exact number is not on record here.

Holding throughout (assay type): biochemical
One experiment addresses T1, PI3K β (p110β/p85α) (Homo sapiens, UniProt P42338).
T1 construct: purchased Upstate / Millipore Corporation
Briefly: PI 3-Kinase (human) HTRF assay, PI3K β. Particulars: read-out: PI3K β IC50.

The target of a further experiment is T2, PI3K γ (p110γ) (Homo sapiens, UniProt P48736).
T2 construct: purchased Upstate / Millipore Corporation
T2 sequence (P48736 whole entry): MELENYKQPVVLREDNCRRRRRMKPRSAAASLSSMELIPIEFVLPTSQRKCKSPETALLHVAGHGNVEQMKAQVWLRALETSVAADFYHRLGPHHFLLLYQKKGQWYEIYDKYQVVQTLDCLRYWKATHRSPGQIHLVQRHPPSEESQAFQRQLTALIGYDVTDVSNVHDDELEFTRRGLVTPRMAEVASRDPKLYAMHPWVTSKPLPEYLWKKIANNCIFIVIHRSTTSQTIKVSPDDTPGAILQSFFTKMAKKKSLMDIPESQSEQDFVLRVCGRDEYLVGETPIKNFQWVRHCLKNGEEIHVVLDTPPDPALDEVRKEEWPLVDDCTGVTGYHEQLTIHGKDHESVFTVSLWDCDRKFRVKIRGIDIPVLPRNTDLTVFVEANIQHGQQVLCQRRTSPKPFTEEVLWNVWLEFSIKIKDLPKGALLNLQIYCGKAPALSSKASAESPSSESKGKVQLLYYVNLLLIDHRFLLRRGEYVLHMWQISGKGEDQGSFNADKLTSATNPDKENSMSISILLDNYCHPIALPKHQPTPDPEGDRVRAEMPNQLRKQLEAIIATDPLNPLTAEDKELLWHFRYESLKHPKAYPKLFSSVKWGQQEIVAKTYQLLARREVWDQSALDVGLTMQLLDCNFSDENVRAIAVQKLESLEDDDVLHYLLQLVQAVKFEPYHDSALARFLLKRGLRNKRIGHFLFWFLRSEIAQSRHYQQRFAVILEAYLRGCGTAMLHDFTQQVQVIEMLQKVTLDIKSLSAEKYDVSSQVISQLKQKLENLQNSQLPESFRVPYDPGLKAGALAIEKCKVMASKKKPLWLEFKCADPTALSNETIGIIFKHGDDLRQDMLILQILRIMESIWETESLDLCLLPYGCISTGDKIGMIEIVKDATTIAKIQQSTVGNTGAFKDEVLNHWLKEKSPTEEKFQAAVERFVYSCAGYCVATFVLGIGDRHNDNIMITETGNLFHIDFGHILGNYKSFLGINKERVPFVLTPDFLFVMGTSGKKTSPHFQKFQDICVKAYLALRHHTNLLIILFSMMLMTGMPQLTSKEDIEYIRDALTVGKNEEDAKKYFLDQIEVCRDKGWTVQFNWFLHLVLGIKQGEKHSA
In words: PI 3-Kinase (human) HTRF assay, PI3K γ. Particulars: read-out: PI3K γ IC50. For orientation: In TR-FRET formats the signal depends on donor and acceptor labels being close together.

A further experiment addresses T3, PI3K α (p110α/p85α) (Homo sapiens, UniProt P42336).
T3 construct: purchased Upstate / Millipore Corporation
In words: PI 3-Kinase (human) HTRF assay, PI3K α. Particulars: read-out: PI3K α IC50.

The target in a further experiment is T4, PI3K δ (Homo sapiens, UniProt O00329).
T4 construct: purchased Upstate / Millipore Corporation
T4 sequence (O00329 whole entry): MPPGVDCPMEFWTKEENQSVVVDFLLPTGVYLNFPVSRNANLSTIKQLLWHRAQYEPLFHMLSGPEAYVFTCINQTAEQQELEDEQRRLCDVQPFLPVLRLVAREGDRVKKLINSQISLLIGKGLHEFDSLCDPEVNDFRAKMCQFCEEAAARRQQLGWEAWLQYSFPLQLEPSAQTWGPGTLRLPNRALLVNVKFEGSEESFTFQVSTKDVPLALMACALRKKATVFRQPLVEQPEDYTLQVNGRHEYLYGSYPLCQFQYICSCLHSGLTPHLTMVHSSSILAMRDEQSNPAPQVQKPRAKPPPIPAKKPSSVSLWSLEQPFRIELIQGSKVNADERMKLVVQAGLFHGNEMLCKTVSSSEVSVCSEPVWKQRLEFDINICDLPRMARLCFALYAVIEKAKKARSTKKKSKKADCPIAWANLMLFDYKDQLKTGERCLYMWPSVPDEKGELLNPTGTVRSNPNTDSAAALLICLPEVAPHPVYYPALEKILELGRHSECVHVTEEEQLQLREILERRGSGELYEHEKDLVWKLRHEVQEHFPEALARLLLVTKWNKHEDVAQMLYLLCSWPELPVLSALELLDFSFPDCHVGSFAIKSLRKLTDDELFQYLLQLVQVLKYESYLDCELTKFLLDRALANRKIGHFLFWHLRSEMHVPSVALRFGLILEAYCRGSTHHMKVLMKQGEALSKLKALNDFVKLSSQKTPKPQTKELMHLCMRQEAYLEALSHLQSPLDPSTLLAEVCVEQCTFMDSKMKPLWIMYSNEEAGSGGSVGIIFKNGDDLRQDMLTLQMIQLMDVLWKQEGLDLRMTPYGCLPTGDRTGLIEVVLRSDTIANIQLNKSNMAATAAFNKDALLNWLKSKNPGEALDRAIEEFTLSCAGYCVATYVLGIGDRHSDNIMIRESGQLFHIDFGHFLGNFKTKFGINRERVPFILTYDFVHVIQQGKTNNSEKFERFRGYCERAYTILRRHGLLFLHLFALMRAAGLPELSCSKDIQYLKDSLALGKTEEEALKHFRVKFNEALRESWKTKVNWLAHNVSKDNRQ
T4 sequence (P27986 whole entry partner): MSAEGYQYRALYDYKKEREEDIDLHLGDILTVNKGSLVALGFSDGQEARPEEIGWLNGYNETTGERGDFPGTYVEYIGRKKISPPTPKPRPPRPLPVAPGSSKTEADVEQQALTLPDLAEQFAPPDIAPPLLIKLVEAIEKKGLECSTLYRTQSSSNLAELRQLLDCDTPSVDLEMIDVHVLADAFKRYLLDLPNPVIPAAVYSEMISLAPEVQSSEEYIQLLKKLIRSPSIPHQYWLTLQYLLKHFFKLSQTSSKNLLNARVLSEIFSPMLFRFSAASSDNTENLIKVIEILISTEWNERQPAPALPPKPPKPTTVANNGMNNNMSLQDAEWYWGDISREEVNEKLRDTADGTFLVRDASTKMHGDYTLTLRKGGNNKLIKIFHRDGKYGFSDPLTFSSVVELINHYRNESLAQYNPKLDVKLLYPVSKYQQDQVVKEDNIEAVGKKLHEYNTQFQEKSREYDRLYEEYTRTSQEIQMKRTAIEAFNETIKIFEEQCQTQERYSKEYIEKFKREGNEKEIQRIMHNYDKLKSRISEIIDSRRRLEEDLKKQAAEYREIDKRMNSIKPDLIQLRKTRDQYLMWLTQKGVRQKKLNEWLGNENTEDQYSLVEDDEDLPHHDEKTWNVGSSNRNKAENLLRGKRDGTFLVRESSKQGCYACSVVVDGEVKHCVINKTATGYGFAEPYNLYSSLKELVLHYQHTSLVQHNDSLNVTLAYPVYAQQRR
Briefly: PI 3-Kinase (human) HTRF assay, PI3K δ. Particulars: read-out: PI3K δ IC50.

T3 sequence (P42336 whole entry): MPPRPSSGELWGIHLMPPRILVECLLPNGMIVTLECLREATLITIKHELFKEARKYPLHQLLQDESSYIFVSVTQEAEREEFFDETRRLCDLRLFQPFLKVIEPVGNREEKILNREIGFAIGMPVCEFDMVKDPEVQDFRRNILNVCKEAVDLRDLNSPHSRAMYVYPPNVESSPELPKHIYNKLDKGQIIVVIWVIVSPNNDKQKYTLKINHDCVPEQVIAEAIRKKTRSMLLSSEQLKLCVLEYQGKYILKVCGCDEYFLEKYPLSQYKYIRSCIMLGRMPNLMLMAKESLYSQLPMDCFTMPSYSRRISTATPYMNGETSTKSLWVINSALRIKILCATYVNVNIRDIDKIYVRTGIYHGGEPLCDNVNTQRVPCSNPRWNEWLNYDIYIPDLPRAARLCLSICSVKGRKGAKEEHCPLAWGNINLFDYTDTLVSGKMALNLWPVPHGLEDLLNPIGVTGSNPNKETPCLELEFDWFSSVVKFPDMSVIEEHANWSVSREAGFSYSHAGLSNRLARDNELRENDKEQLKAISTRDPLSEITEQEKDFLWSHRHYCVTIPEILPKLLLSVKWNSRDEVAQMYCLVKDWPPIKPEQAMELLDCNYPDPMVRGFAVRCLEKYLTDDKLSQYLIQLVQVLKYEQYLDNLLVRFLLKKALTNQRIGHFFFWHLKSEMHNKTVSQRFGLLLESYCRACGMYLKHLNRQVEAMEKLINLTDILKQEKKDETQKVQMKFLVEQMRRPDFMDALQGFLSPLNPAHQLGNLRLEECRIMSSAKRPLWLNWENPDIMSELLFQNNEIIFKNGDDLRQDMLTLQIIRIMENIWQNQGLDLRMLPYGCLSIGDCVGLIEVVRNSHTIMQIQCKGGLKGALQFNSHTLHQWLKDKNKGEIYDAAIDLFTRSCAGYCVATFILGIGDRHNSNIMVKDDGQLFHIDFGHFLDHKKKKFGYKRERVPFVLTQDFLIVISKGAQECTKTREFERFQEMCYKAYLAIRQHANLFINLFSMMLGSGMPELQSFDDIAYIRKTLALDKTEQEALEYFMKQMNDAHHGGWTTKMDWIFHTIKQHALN
T3 sequence (P27986 whole entry partner): as the sequence (P27986 whole entry partner) above
T1 sequence (P42338 whole entry): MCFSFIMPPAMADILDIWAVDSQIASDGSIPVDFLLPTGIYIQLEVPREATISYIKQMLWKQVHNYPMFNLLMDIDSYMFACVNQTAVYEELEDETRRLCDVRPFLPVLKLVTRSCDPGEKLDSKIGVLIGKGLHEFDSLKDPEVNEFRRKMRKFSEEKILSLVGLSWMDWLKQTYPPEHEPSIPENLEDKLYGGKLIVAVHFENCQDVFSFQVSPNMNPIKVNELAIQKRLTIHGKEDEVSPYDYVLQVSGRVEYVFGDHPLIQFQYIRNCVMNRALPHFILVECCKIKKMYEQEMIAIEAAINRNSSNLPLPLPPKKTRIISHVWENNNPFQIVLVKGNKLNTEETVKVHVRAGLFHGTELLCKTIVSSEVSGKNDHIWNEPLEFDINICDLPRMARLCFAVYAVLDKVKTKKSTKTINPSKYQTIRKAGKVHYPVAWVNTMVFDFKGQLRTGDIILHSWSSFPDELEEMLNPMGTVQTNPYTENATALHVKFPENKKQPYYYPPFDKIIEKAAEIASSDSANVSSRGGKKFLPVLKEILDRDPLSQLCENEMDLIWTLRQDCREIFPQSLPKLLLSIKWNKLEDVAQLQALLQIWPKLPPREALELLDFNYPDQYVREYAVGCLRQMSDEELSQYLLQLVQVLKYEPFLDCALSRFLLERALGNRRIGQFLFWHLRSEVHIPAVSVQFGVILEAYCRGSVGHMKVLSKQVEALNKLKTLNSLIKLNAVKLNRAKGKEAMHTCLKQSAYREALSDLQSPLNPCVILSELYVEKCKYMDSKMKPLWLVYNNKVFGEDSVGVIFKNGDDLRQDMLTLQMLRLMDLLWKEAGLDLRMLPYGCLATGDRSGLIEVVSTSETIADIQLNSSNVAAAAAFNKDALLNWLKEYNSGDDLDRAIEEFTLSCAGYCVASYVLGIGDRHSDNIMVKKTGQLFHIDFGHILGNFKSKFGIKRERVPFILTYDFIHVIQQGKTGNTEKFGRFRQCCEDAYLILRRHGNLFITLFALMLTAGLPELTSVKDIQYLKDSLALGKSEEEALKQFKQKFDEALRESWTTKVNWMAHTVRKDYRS
T1 sequence (P27986 whole entry partner): as the sequence (P27986 whole entry partner) above

The IC50 is the concentration that gives 50% inhibition. For `Nc1nc2cc(-c3ccc4ncc(N5CCOCC5)cc4n3)ccc2o1` [Compound 573], the IC50 was less than 1 µM on PI3K β (p110β/p85α) (Table 4 (PI3K α inhibitors)), less than 0.1 µM at PI3K γ (p110γ) (Table 4 (PI3K α inhibitors)), less than 0.1 µM at PI3K α (p110α/p85α) (Table 4 (PI3K α inhibitors)) and greater than 10 µM on PI3K δ (Table 4 (PI3K α inhibitors)).

On to `CN(C)CC(=O)N1CCN(c2cnc3ccc(-c4ccc5oc(N)nc5c4)cc3n2)CC1` [Compound 217], for which the IC50 on PI3K β (p110β/p85α) is less than 1 µM; at PI3K γ (p110γ), less than 1 µM; on PI3K α (p110α/p85α), less than 0.1 µM; at PI3K δ it was less than 1 µM.

With `Nc1ncc(-c2ccc3ncc(C(=O)N4CCOCC4)n3c2)cc1C(F)(F)F` [Compound 410], the half-inhibitory concentration (IC50) at PI3K β (p110β/p85α) is greater than 10 µM; on PI3K γ (p110γ), greater than 10 µM; on PI3K α (p110α/p85α), less than 10 µM; on PI3K δ, greater than 10 µM.

For the compound `O=C(c1cnc2ccc(-c3cncc(NS(=O)(=O)c4ccccc4)c3)cn12)N1CCOCC1` [Compound 424], the IC50 was greater than 10 µM on PI3K β (p110β/p85α), less than 1 µM on PI3K γ (p110γ), less than 1 µM on PI3K α (p110α/p85α) and less than 10 µM on PI3K δ.

`Nc1nc2cc(-c3ccc4ncc(S(=O)(=O)N5CCOCC5)n4c3)ccc2o1` [Compound 109]: the IC50 on PI3K β (p110β/p85α), on PI3K γ (p110γ), at PI3K α (p110α/p85α) and at PI3K δ was greater than 10 µM each time.

As to `Nc1nc2cc(-c3ccc4ncc(N5CC(C(=O)N6CCOCC6)C5)nc4c3)ccc2o1` [Compound 252], the concentration for half-maximal inhibition (IC50) at PI3K β (p110β/p85α) was less than 10 µM; on PI3K γ (p110γ) it was less than 10 µM; at PI3K α (p110α/p85α), greater than 10 µM; at PI3K δ, less than 10 µM.

For the compound `Nc1nc2cc(-c3ccc4ncc(-c5cnn(CCO)c5)nc4c3)ccc2o1` [Compound 108], the IC50 on PI3K β (p110β/p85α) is less than 10 µM; at PI3K γ (p110γ), less than 0.1 µM; at PI3K α (p110α/p85α) it was less than 0.1 µM; at PI3K δ, greater than 10 µM.

As for `CCN1CCN(c2cnc3ccc(-c4ccc5oc(N)nc5c4)cc3n2)CC1` [Compound 152], the IC50 at PI3K β (p110β/p85α) is less than 0.1 µM; on PI3K γ (p110γ) it was less than 1 µM; on PI3K α (p110α/p85α), less than 0.1 µM; on PI3K δ, less than 10 µM.

Take `CC(=O)Nc1cn2cc(-c3ccc4nccc(-c5ccncc5)c4c3)ccc2n1` [Compound 19]: the IC50 at PI3K β (p110β/p85α), on PI3K γ (p110γ), on PI3K α (p110α/p85α) and on PI3K δ was greater than 10 µM throughout.

In the case of `Nc1nc2cc(-c3ccc4ncn(C5CCCC5)c(=O)c4c3)ccc2o1` [Compound 256], the IC50 at PI3K β (p110β/p85α) was greater than 10 µM; at PI3K γ (p110γ) it was greater than 10 µM; on PI3K α (p110α/p85α), less than 10 µM; at PI3K δ, greater than 10 µM.

Take `Cc1cc(-c2ccc3nc(N)oc3c2)cn2c(N3CCN(C)CC3)nnc12` [Compound 546]: the IC50 at PI3K β (p110β/p85α), on PI3K γ (p110γ), at PI3K α (p110α/p85α) and at PI3K δ was greater than 10 µM throughout.

On to `Nc1nc2nc(-c3ccc4ncc(C(=O)N5CCOCC5)n4c3)ccc2o1` [Compound 412], for which the IC50 was greater than 10 µM on PI3K β (p110β/p85α), greater than 10 µM on PI3K γ (p110γ), less than 10 µM at PI3K α (p110α/p85α) and greater than 10 µM at PI3K δ.

With `CS(=O)(=O)Nc1cc(-c2ccc3ncc(C(=O)N4CCOCC4)n3c2)ccc1Cl` [Compound 460], the half-maximal inhibitory concentration (IC50) on PI3K β (p110β/p85α) was greater than 10 µM; at PI3K γ (p110γ), greater than 10 µM; at PI3K α (p110α/p85α), less than 10 µM; at PI3K δ, greater than 10 µM.

As for `CN1CCN(CCc2nnc3ccc(-c4ccc5nc(N)oc5c4)cn23)CC1` [Compound 545], the IC50 on PI3K β (p110β/p85α), at PI3K γ (p110γ), on PI3K α (p110α/p85α) and on PI3K δ was greater than 10 µM throughout.

Take `CN1CCC(Nc2cnc3ccc(-c4ccc5oc(N)nc5c4)cc3n2)CC1` [Compound 81]: the IC50 at PI3K β (p110β/p85α) was less than 1 µM; at PI3K γ (p110γ), less than 1 µM; at PI3K α (p110α/p85α), less than 0.1 µM; at PI3K δ it was less than 0.1 µM.

`CN1CCN(CCn2cnc3ccc(-c4ccc5oc(N)nc5c4)cc3c2=O)CC1` [Compound 280]: the IC50 at PI3K β (p110β/p85α) is greater than 10 µM; at PI3K γ (p110γ) it was greater than 10 µM; at PI3K α (p110α/p85α), less than 10 µM; at PI3K δ, greater than 10 µM.
